According to patent US8318949B2, “Organic compounds” (Novartis AG, priority 2008, dated 2012):

Compound	melting point [°C]
Cc1nc(-n2cnn(Cc3ccc(F)cc3)c2=O)sc1C(N)=O [Example 1, 2-(1-(4-fluorobenzyl)-5-oxo-1H-1,2,4-triazol-4(5H)-yl)-4-methylthiazole-5-carboxamide]	232 to 233
Cc1nc(-n2cnn(CC3CC3)c2=O)sc1C(N)=O [Example 1.1, 2-[1-(cyclopropylmethyl)-5-oxo-1H-1,2,4-triazol-4(5H)-yl]-4-methylthiazole-5-carboxamide]	180 to 181
Cc1nc(N2CCN(Cc3ccc(C(F)(F)F)cc3)C2=O)sc1C(N)=O [Example 1.2, 4-methyl-2-{2-oxo-3-[4-(trifluoromethyl)benzyl]imidazolidin-1-yl}thiazole-5-carboxamide]	216 to 217
Cc1nc(N2C[C@H](C)N(Cc3ccc(F)cc3)C2=O)sc1C(N)=O [Example 1.3, (S)-2-(3-(4-fluorobenzyl)-4-methyl-2-oxoimidazolidin-1-yl)-4-methylthiazole-5-carboxamide]	192 to 194
Cc1nc(N2CCN(CC3CC3)C2=O)sc1C(N)=O [Example 1.5, 2-(3-(cyclopropylmethyl)-2-oxoimidazolidin-1-yl)-4-methylthiazole-5-carboxamide]	198 to 200
Cc1nc(N2CCN(CC(C)C)C2=O)sc1C(N)=O [Example 1.6, 2-(3-isobutyl-2-oxoimidazolidin-1-yl)-4-methylthiazole-5-carboxamide]	212 to 215
Cc1nc(N2CCN(Cc3ccc(F)c(F)c3)C2=O)sc1C(N)=O [Example 1.7, 2-(3-(3,4-difluorobenzyl)-2-oxoimidazolidin-1-yl)-4-methylthiazole-5-carboxamide]	221 to 223
Cc1nc(N2CCN(Cc3cc(F)cc(F)c3)C2=O)sc1C(N)=O [Example 1.8, 2-(3-(3,5-difluorobenzyl)-2-oxoimidazolidin-1-yl)-4-methylthiazole-5-carboxamide]	> 200
Cc1nc(N2CCN(Cc3ccc(OC(F)(F)F)cc3)C2=O)sc1C(N)=O [Example 1.9, 4-methyl-2-(2-oxo-3-(4-(trifluoromethoxy)benzyl)imidazolidin-1-yl)thiazole-5-carboxamide]	185 to 187
Cc1nc(N2CCN(Cc3ccc(C(F)(F)F)nc3)C2=O)sc1C(N)=O [Example 1.10, 4-methyl-2-(2-oxo-3-((6-(trifluoromethyl)pyridine-3-yl)methyl)imidazolidin-1-yl)thiazole-5-carboxamide]	225 to 228
COc1ccc(CN2CCN(c3nc(C)c(C(N)=O)s3)C2=O)cc1F [Example 1.11, 2-(3-(3-fluoro-4-methoxybenzyl)-2-oxoimidazolidin-1-yl)-4-methylthiazole-5-carboxamide]	182 to 184
Cc1nc(N2C(=O)N(Cc3ccc(F)cc3)C[C@@H]2C)sc1C(N)=O [Example 1.12, (S)-2-(3-(4-fluorobenzyl)-5-methyl-2-oxoimidazolidin-1-yl)-4-methylthiazole-5-carboxamide]	197 to 198
Cc1nc(N2CCN(Cc3ccc(Cl)cc3)C2=O)sc1C(N)=O [Example 1.13, 2-(3-(4-chlorobenzyl)-2-oxoimidazolidin-1-yl)-4-methylthiazole-5-carboxamide]	> 200
Cc1nc(N2C[C@@H](C)N(Cc3cc(F)cc(F)c3)C2=O)sc1C(N)=O [Example 1.14, (R)-2-(3-(3,5-difluorobenzyl)-4-methyl-2-oxoimidazolidin-1-yl)-4-methylthiazole-5-carboxamide]	212 to 213
Cc1nc(N2C[C@@H](C)N(Cc3ccc(F)cc3)C2=O)sc1C(N)=O [Example 1.15, (R)-2-(3-(4-fluorobenzyl)-4-methyl-2-oxoimidazolidin-1-yl)-4-methylthiazole-5-carboxamide]	185 to 186
Cc1nc(N2C[C@@H](C)N(Cc3ccc(C(F)(F)F)cc3)C2=O)sc1C(N)=O [Example 1.16, (R)-4-methyl-2-(4-methyl-2-oxo-3-(4-(trifluoromethyl)benzyl)imidazolidin-1-yl)thiazole-5-carboxamide]	110 to 112
Cc1nc(N2C[C@H](C)N(Cc3ccc(F)cc3)C2=O)sc1C(=O)NCc1cccnc1 [Example 2, (S)-2-(3-(4-Fluorobenzyl)-4-methyl-2-oxoimidazolidin-1-yl)-4-methyl-N-(pyridin-3-ylmethyl)thiazole-5-carboxamide]	67 to 70

The next lines start with the values.

melting point [°C]	Compound
62 to 65	Cc1nc(N2C[C@H](C)N(Cc3ccc(F)cc3)C2=O)sc1C(=O)NCc1ccc(F)c(F)c1 [Example 2.1, (S)-N-(3,4-difluorobenzyl)-2-(3-(4-fluorobenzyl)-4-methyl-2-oxoimidazolidin-1-yl)-4-methylthiazole-5-carboxamide]
225 to 226	Cc1cc(CNC(=O)c2sc(N3CCN(Cc4ccc(F)cc4)C3=O)nc2C)[nH]n1 [Example 2.2, 2-(3-(4-fluorobenzyl)-2-oxoimidazolidin-1-yl)-4-methyl-N-((3-methyl-1H-pyrazol-5-yl)methyl)thiazole-5-carboxamide]
234 to 235	Cc1cc(CNC(=O)c2sc(-n3cnn(Cc4ccc(F)cc4)c3=O)nc2C)[nH]n1 [Example 2.3, 2-(1-(4-Fluorobenzyl)-5-oxo-1H-1,2,4-triazol-4(5H)-yl)-4-methyl-N-((3-methyl-1H-pyrazol-5-yl)methyl)thiazole-5-carboxamide]
144 to 145	C=CCCN1CCN(c2nc(C)c(C(=O)NCc3cccnc3)s2)C1=O [Example 2.4, 2-(3-(but-3-enyl)-2-oxoimidazolidin-1-yl)-4-methyl-N-(pyridin-3-ylmethyl)thiazole-5-carboxamide]
118 to 119	Cc1nc(N2C[C@@H](C)N(Cc3ccc(F)cc3)C2=O)sc1C(=O)NCc1ccccn1 [Example 2.5, (R)-2-(3-(4-fluorobenzyl)-4-methyl-2-oxoimidazolidin-1-yl)-4-methyl-N-(pyridin-2-ylmethyl)thiazole-5-carboxamide]
134 to 135	Cc1nc(N2C[C@@H](C)N(Cc3ccc(F)cc3)C2=O)sc1C(=O)NCc1ccc(F)c(F)c1 [Example 2.6, (R)-N-(3,4-difluorobenzyl)-2-(3-(4-fluorobenzyl)-4-methyl-2-oxoimidazolidin-1-yl)-4-methylthiazole-5-carboxamide]
66 to 69	Cc1nc(N2C[C@@H](C)N(Cc3ccc(F)cc3)C2=O)sc1C(=O)NCc1cncs1 [Example 2.8, (R)-2-(3-(4-fluorobenzyl)-4-methyl-2-oxoimidazolidin-1-yl)-4-methyl-N-(thiazol-5-ylmethyl)thiazole-5-carboxamide]
215 to 216	Cc1cc(CNC(=O)c2sc(N3C[C@@H](C)N(Cc4ccc(F)cc4)C3=O)nc2C)[nH]n1 [Example 2.9, (R)-2-(3-(4-fluorobenzyl)-4-methyl-2-oxoimidazolidin-1-yl)-4-methyl-N-((3-methyl-1H-pyrazol-5-yl)methyl)thiazole-5-carboxamide]
159 to 160	Cc1nc(N2C[C@@H](C)N(Cc3ccc(F)cc3)C2=O)sc1C(=O)NCc1cc(F)cc(F)c1 [Example 2.10, (R)-N-(3,5-difluorobenzyl)-2-(3-(4-fluorobenzyl)-4-methyl-2-oxoimidazolidin-1-yl)-4-methylthiazole-5-carboxamide]
139 to 140	Cc1cc(CNC(=O)c2sc(N3C[C@@H](C)N(Cc4ccc(F)cc4)C3=O)nc2C)no1 [Example 2.11, (R)-2-(3-(4-fluorobenzyl)-4-methyl-2-oxoimidazolidin-1-yl)-4-methyl-N-((5-methylisoxazol-3-yl)methyl)thiazole-5-carboxamide]
147 to 148	Cc1nc(N2C[C@@H](C)N(Cc3cc(F)cc(F)c3)C2=O)sc1C(=O)NCc1ccccn1 [Example 2.12, (R)-2-(3-(3,5-difluorobenzyl)-4-methyl-2-oxoimidazolidin-1-yl)-4-methyl-N-(pyridin-2-ylmethyl)thiazole-5-carboxamide]
131 to 132	Cc1cnc(CNC(=O)c2sc(N3C[C@@H](C)N(Cc4cc(F)cc(F)c4)C3=O)nc2C)cn1 [Example 2.13, (R)-2-(3-(3,5-difluorobenzyl)-4-methyl-2-oxoimidazolidin-1-yl)-4-methyl-N-((5-methylpyrazin-2-yl)methyl)thiazole-5-carboxamide]
63 to 66	Cc1cc(CNC(=O)c2sc(N3C[C@@H](C)N(Cc4cc(F)cc(F)c4)C3=O)nc2C)no1 [Example 2.14, (R)-2-(3-(3,5-difluorobenzyl)-4-methyl-2-oxoimidazolidin-1-yl)-4-methyl-N-((5-methylisoxazol-3-yl)methyl)thiazole-5-carboxamide]
112 to 113	Cc1nc(N2C(=O)N(Cc3ccc(F)cc3)C[C@@H]2C)sc1C(=O)NCc1ccccn1 [Example 2.15, (S)-2-(3-(4-fluorobenzyl)-5-methyl-2-oxoimidazolidin-1-yl)-4-methyl-N-(pyridin-2-ylmethyl)thiazole-5-carboxamide]
176 to 177	Cc1nc(N2C(=O)N(Cc3ccc(F)cc3)C[C@@H]2C)sc1C(=O)NCc1cnn(C)c1 [Example 2.16, (S)-2-(3-(4-fluorobenzyl)-5-methyl-2-oxoimidazolidin-1-yl)-4-methyl-N-((1-methyl-1H-pyrazol-4-yl)methyl)thiazole-5-carboxamide]
174 to 175	Cc1cc(CNC(=O)c2sc(N3C(=O)N(Cc4ccc(F)cc4)C[C@@H]3C)nc2C)no1 [Example 2.17, (S)-2-(3-(4-fluorobenzyl)-5-methyl-2-oxoimidazolidin-1-yl)-4-methyl-N-((5-methylisoxazol-3-yl)methyl)thiazole-5-carboxamide]
55 to 57	Cc1nc(N2C(=O)N(Cc3ccc(F)cc3)C[C@H]2C)sc1C(=O)NCc1ccccn1 [Example 2.18, (R)-2-(3-(4-fluorobenzyl)-5-methyl-2-oxoimidazolidin-1-yl)-4-methyl-N-(pyridin-2-ylmethyl)thiazole-5-carboxamide]
70 to 73	Cc1nc(N2C(=O)N(Cc3ccc(F)cc3)C[C@H]2C)sc1C(=O)NCc1cncs1 [Example 2.19, (R)-2-(3-(4-fluorobenzyl)-5-methyl-2-oxoimidazolidin-1-yl)-4-methyl-N-(thiazol-5-ylmethyl)thiazole-5-carboxamide]
